Reference: EP1210336B1, “SUBSTITUTED BENZIMIDAZOLES AS NON-NUCLEOSIDE INHIBITORS OF REVERSE TRANSCRIPTASE” (THE UNITED STATES OF AMERICA, as represented by the …, priority 1999, dated 2001)
Where two headings read alike, the source gives them in different places.

Tests used:
WT virus (NL4-3) = assay: microbe, parasite or virus in culture; assay type: cell-based, HIV-1; settings: for EC50 / EC50 (µM): Table 11, CEMSS/NL4-3, NRVC = reduction in viral CPE not seen (footnote); for EC50: read-out: EC50
Procedure: Evaluation of these compounds for the inhibition of HIV-1 was determined as the fifty percent cell culture inhibitory concentration (CIC50) in CEMSS cell culture with WT virus (NL4-3).
In this Example, the antiviral and cellular toxicity of NNRTIs was investigated, using the cytopathic cell killing assay described by Yang (Yang et al., "Characteristics of a Group of Non-nucleoside Reverse Transcriptase Inhibitors with Structural Diversity and Potent Anti-Human Immunodeficiency Virus Activity," Leukemia 9:S75-S85 [1995]). Briefly, in this method cells (e.g., the CEM-SS cell line, available from the NIAID AIDS Research and Reference Program [ARRRP]) were seeded at a density of 5 x 10^3 cells/well, into the wells of a 96-well microtiter plate. The cells were then infected with HIV virus (either mutant or WT), at a multiplicity of infection (MOI) previously determined to provide complete cell killing by 6 days of culture post-infection (e.g., MOI of 0.01-0.05). Each of the HIV isolates was pre-titered to induce equivalent levels of infection based on cell killing or virus production, prior to their use in these assays. A range of test compound concentrations was added to the wells in triplicate (e.g., serial half-log dilutions) to evaluate inhibition of HIV infection. Controls for each assay included drug controls (drug colorimetric control wells), drug cytotoxicity control wells (cells with drug), virus control wells (cells with virus), and cell viability controls (cells only). Positive control drugs (e.g., AZT and ddC) were also run in parallel.
After six days of incubation at 37°C, cell viability was determined spectrophotometrically at 450 nm for each well, using the metabolic reduction of XTT to a soluble colored formazan. (See, Gartner and Popovic, "Virus Isolation and Production, in Aldovini and Walker (eds.), Techniques in HIV Research, Stockton Press, NY, pp. […] [1991]; and Nara and Fischinger, "Quantitative Infectivity Assay for HIV-1 and HIV-2," Nature 332:469-470 [1988]).
The in vitro therapeutic index (TI50) was defined as the fold-difference between the EC50 and IC50. The results for the various compounds are included in Figures 8 and 19.

HIV-1 WT RT = molecular target: T1, HIV-1 WT RT (Human immunodeficiency virus type 1 group M subtype B, UniProt P03366); assay: biochemical; settings: WT RT, 10 µM drug concentration
T1 construct: purified RT protein (0.015 mg/mL) was incubated in a 100 µL reaction mixture

[1] = Table 2, read-out: %inhibn (10µM)
[2] = Table 3, read-out: %inhibn (10 µM)
[3] = Table 1, read-out: %inhibn (10µM)

Molecule: 1-(2,6-Difluorobenzyl)-2-(2,6-difluorophenyl)-4-hydroxyl-benzimidazole [compound 52]
- EC50 (WT virus (NL4-3)): 630 nM

Molecule: 1-(2,6-Difluorobenzyl)-2-(2,6-difluorophenyl)-4-hydroxymethylbenzimidazole [compound 67]
- EC50 (WT virus (NL4-3)): 23 nM

Molecule: 1-(2,6-Difluorobenzyl)-2-(2,6-difluorophenyl)-4-isopropenylbenzimidazole [compound 66]
- EC50 (WT virus (NL4-3)): 1440 nM

Molecule: 1-(2,6-Difluorobenzyl)-2-(2,6-difluorophenyl)-benzimidazole-4-carbaldehyde [compound 68]
- EC50 (WT virus (NL4-3)): 120 nM

Molecule: 1-(2,6-Difluorobenzyl)-2-(2,6-difluorophenyl)benzimidazole-4-carboxylate [compound 64]
- EC50 (µM) (WT virus (NL4-3)): NRVC

Molecule: 1-(2,6-difluorobenzyl)-2-(2,6-difluorophenyl)-4-acetoxymethylbenzimidazole [compound 51]
- EC50 (WT virus (NL4-3)): 59 nM

Molecule: 1-(2,6-difluorobenzyl)-2-(2,6-difluorophenyl)-4-chloromethylbenzimidazole [compound 69]
- EC50 (WT virus (NL4-3)): 180 nM

Molecule: 1-(2,6-difluorobenzyl)-2-(2,6-difluorophenyl)-4-cyanobenzimidazole [compound 60]
- EC50 (WT virus (NL4-3)): 430 nM

Molecule: 1-(2,6-difluorobenzyl)-2-(2,6-difluorophenyl)benzimidazol-4-yl-methylamine [compound 71]
- EC50 (WT virus (NL4-3)): 37 nM

Molecule: 1-(2,6-difluorobenzyl)-2-(2,6-difluorophenyl)benzimidazole-4-carboxylic acid amide [compound 62]
- EC50 (WT virus (NL4-3)): 4900 nM

Molecule: Fc1cccc(F)c1-c1nc2ccccc2n1Cc1ccccc1 [compound 28, 1-benzyl-2-(2,6-difluorophenyl)benzimidazole]
- inhibition at 10 µM (HIV-1 WT RT; [1]): 71%

Molecule: Cc1cccc2c1nc(-c1c(F)cccc1F)n2Cc1ccccc1 [compound 29, 1-benzyl-2-(2,6-difluorophenyl)-4-methylbenzimidazole]
- inhibition at 10 µM (HIV-1 WT RT; [1]): 87%

Molecule: Cc1cccc2c1nc(-c1c(F)cccc1F)n2Cc1c(Cl)cccc1Cl [compound 30, 1-(2,6-dichlorobenzyl)-2-(2,6-difluorophenyl)-4-methylbenzimidazole]
- inhibition at 10 µM (HIV-1 WT RT; [1]): 58%

Molecule: Fc1cccc(F)c1COCc1nc2ccccc2n1Cc1c(F)cccc1F [compound 32, 1-(2,6-difluorobenzyl)-2-(2,6-difluorobenzyloxymethyl)benzimidazole]
- inhibition at 10 µM (HIV-1 WT RT; [2]): 7%

Molecule: Cc1nc2ccccc2n1Cc1c(F)cccc1F [compound 35, 1-(2,6-difluorobenzyl)-2-methylbenzimidazole]
- inhibition at 10 µM (HIV-1 WT RT; [2]): 22%

Molecule: Cc1ccccc1-c1nc2ccccc2n1Cc1c(F)cccc1F [compound 36, 1-(2,6-difluorobenzyl)-2-(2-methylphenyl)benzimidazole]
- inhibition at 10 µM (HIV-1 WT RT; [3]): 71%

Molecule: Cc1cccc2c1nc(-c1cccc3ccccc13)n2Cc1c(F)cccc1F [compound 37, 1-(2,6-difluorobenzyl)-2-(1-naphthyl)-4-methylbenzimidazole]
- inhibition at 10 µM (HIV-1 WT RT; [3]): 2%

Molecule: Fc1cccc(F)c1Cn1c(-c2c(F)cccc2F)nc2cc(Br)ccc21 [compound 38, 1-(2,6-Difluorobenzyl)-2-(2,6-difluorophenyl)-5-bromobenzimidazole]
- cytotoxicity and anti-viral effect (summary graph) (WT virus (NL4-3); Figures 10-12, result in words): inactive

Molecule: O=S(=O)(c1ccccc1)n1c(-c2c(F)cccc2F)nc2ccccc21 [compound 45]
- inhibition at 10 µM (HIV-1 WT RT; [1]): 52%

Molecule: Cc1cccc2c1nc(-c1c(F)cccc1F)n2S(=O)(=O)c1ccccc1 [compound 46]
- inhibition at 10 µM (HIV-1 WT RT; [1]): 39%

Molecule: N=C(NO)c1cccc2c1nc(-c1c(F)cccc1F)n2Cc1c(F)cccc1F [compound 61, N-hydroxy 1-(2,6-difluorobenzyl)-2-(2,6-difluorophenyl)benzimidazole-4-carboxamidine]
- EC50 (WT virus (NL4-3); Human immunodeficiency virus 1, NL43, CEM-SS): 190 nM

Molecule: CN(C)C(=O)c1cccc2c1nc(-c1c(F)cccc1F)n2Cc1c(F)cccc1F [compound 63, 1-(2,6-difluorobenzyl)-2-(2,6-difluorophenyl)benzimidazole-4-carboxylic acid dimethylamide]
- EC50 (µM) (WT virus (NL4-3)): NRVC

Molecule: Cc1cccc2c1nc(-c1ccc(C#N)cc1)n2Cc1c(F)cccc1F [compound 4007]
- inhibition at 10 µM (HIV-1 WT RT; [3]): 26%
